Measurements taken from patent publication US6641840B2, “Sustained release formulations for growth hormone secretagogues” (Pfizer Inc., priority 2000, dated 2003).
Where “and” joins values, the source holds several entries; their conditions need not be identical. Identical values can stand only once.

Columns and labels:
[1] = Clinical study: body composition (total adipose and total lean tissue); assay type: in vivo, human
Protocol: (All dosage forms in this part of the study were immediate release dosage forms.)
In addition, an extension study was conducted to evaluate the relationship between peak GH concentrations or IGF-I versus surrogate responses such as lipid concentrations and body composition. A sustained release (SR) formulation was also evaluated, either alone or combined with an immediate release (IR) formulation (24-30 patients per group). [16 mg (10 SR, 6 IR) h.s. (h.s. means at bedtime); 16 mg (10 SR, 6 IR) h.s. every third day; 16 mg SR h.s.; and placebo.] The formulations are set forth below.
The primary efficacy endpoint was the percentage change from baseline in IGF-1. Secondary outcomes included insulin-like growth factor binding protein 3 (IGFBP-3), cholesterol subfractions, and percent changes in total adipose and total lean tissue. Changes in each of the secondary efficacy measures over time were examined systematically either graphically or in tabular form and summarized using appropriate descriptive statistics as is well known in the art.

growth hormone = experiment: Simulated sustained release study (bolus vs divided oral solution): serum growth hormone; assay type: in vivo, human; conditions: for GH Tmax: individual subjects 1-4
Protocol: This dosing regimen simulates active compound delivery by a sustained release dosage form. […] Serum concentrations of growth hormone were monitored just prior to administration of the first dose and every 20 minutes thereafter for 24 hours. Serum […] growth factor-I (IGF-I) concentrations were measured at 0, 12, and 24 hours post-first dose.
The order of treatment was defined by a randomization schedule. Following initial administration, subjects were readmitted to the clinical research facility approximately 14 days later. During the second evaluation, the subject received the treatment not used during the previous session.
Growth hormone serum concentrations were determined following administration of the bolus or divided doses. Blood samples, adequate to provide 0.5 ml of serum, were collected just prior to administration of the first dose, and every 20 minutes thereafter for 24 hours for determination of growth hormone. Specimens were collected in tubes containing no additives, and were maintained at room temperature until clotted. The serum was separated from the whole blood and frozen at −20° C. within one hour of collection.
Growth hormone quantitation of the human serum samples was conducted using luminescence measurements by means of an Immulite® system (Diagnostic Products Corporation, Los Angeles, Calif.). All analyses were performed using a hGH Immulite® kit containing hGH test units (LGH 1), hGH reagent wedge (LGH 2) and hGH adjustors (LGHL and LGHH). These kits were obtained from DPC (Diagnostic Products Corporation, Los Angeles, Calif.). In addition, hGH sample diluent (LGHZ), chemiluminescent substrate module (LSUBX), probe wash module (LPWSZ) and the necessary Immulite® accessories were obtained from DPC. For each new kit, the Immulite® system was calibrated by running two adjuster samples (LGHL and LGHH) obtained from the manufacturer, containing a […] concentration of hGH in equine serum, respectively. […] The resulting luminescence was determined by means of an Immulite® system.

[2] = first leg, immediate release dosing

CN1N=C2CCN(C(=O)[C@@H](COCc3ccccc3)NC(=O)C(C)(C)N)C[C@@]2(Cc2ccccc2)C1=O.O=C(O)C(O)C(O)C(=O)O [Compound A]
increases in lean tissue ([1]; extension study, two groups receiving IR formulation): 0.5-0.6%
adipose tissue (body composition) [1, 2]: decreased
apparent whole body lean mass [1, 2]: increased
GH Tmax (growth hormone; 10 mg bolus, L-tartrate): 1 h (3×) and 0.67 h
GH Tmax (growth hormone; 10 mg divided, in h): 1
frequency and amplitude of secondary GH peaks (growth hormone; simulated sustained release of 10 mg compared to bolus): increased
